# Like-named read-outs stand apart in the source and are kept apart here.
# What was measured:
# [1] = test system: cultures enriched in astrocytes; conditions: added to in vitro cultures; cited from earlier work
# [2] = test system: TNF; conditions: Goebel et al. 2000; cited from earlier work
# [3] = test system: CD patients; conditions: Kast 1998; cited from earlier work
# [4] = test system: TNF; conditions: different experimental models; cited from earlier work
# [5] = test system: TNF; conditions: in vivo LPS-induced model; cited from earlier work
# [6] = test system: BALB/c mice; experiment: LPS-induced shock model: survival and signs of endotoxemia after lethal LPS challenge; type: in vivo
# Method: Male BALB/c mice were injected with 11, 33 or 100 mg/kg of bupropion or with placebo i.p. in saline 1 h before challenge with 600 μg of E. coli LPS (Sigma, St. Louis, Mo.) by i.p. route. Mice were sacrificed 90 min for detection of cytokines in the serum by sandwich ELISA. Values represent the means±SEM of 5 mice per group. * P<0.05.
# BALB/c mice were injected intraperitoneally (i.p.) with bupropion or placebo 1 h prior to i.p. injection of LPS (600 ug/mouse).
# Male, 6 weeks old BALB/c mice were used in LPS-induced shock experiments. All mice were raised and maintained at the animal facilities at the Goncalo Moniz Research Center-FIOCRUZ, and provided with rodent diet and water ad libitum. Animal numbers in experimental groups were the minimum necessary to permit statistical analysis. All animals were sacrificed under anaesthesia.
# In some experiments, groups of mice received i.p. injection of propranolol (1 mg/Kg), SCH23390 (25 μg/kg) and sulpiride (25 mg/Kg) 1 h prior to injection of bupropion. […] To determine serum TNF, IL-1 beta and IL-10 levels, mice were sacrificed 90 min after injection of LPS and bled by axilar vein puncture. Levels of IFN-gamma and nitric oxide were assayed using sera of mice sacrificed 4 h after LPS injection. Platelet and leukocyte cell counts were performed using blood collected with EDTA after 4 h of LPS challenge, using an automated cell counter (ADVIA 60, Bayer).
# [7] = test system: Crohn's patients with fistulas; conditions: cited from earlier work
# [8] = test system: patients with Crohn's disease; conditions: cited from earlier work
molecule,measurement,setting,value
NCCc1ccc(O)c(O)c1 [dopamine],LPS-stimulated TNF production,[1],significantly blunted
CC(C)NCC(O)c1ccc(O)c(O)c1 (stereo not drawn) [isoproteronol],TNF levels,[2],lower TNF levels
same,LPS-stimulated TNF production,[1],significantly blunted
NC[C@H](O)c1ccc(O)c(O)c1 [noradrenaline],LPS-stimulated TNF production,[1],significantly blunted
NNCCc1ccccc1 [phenelzine],CD remission,[3],CD remission
COc1ccc(C2CNC(=O)C2)cc1OC1CCCC1 (stereo not drawn) [rolipram],TNF levels,[4],lower TNF levels
CCN1CCCC1CNC(=O)c1cc(S(N)(=O)=O)ccc1OC (stereo not drawn) [sulpiride],TNF levels,[5],lowered TNF levels
same,effect of antagonist on bupropion mediated survival / protection,"[6]; antagonist i.p. 1 h prior to bupropion (propranolol 1 mg/Kg, SCH23390 25 μg/kg, sulpiride 25 mg/Kg), lethal LPS",did not interfere
same,protection from lethal LPS challenge by the antagonist alone,"[6]; without bupropion, propranolol 1 mg/Kg, SCH23390 25 μg/kg, sulpiride 25 mg/Kg i.p.",partial protection
Remicaid: new drug given early FDA approval for Crohn's patients with fistulas,patients with complete remission,[7]; another study,48%
same,patients in whom half of the fistulas closed,[7]; one study,68%
bromocryptine,TNF levels,[5],lowered TNF levels
"infliximab: monoclonal antibody acting against TNF-alpha, for moderate to severe Crohn's disease",patients in remission,"[8]; four weeks after medication, placebo 4 percent",33%
same,share of patients with a 50 percent reduction in fistula drainage,"[8]; second study, active fistulas, three doses two weeks apart",two-thirds
same,share of the patients' fistulas closed,"[8]; second study, active fistulas",over half
